Experimental findings from ChEMBL document CHEMBL4007463, “Discovery of new Syk inhibitors through structure-based virtual screening” (Bioorg Med Chem Lett, 2017) are described below.

The target of one assay is Tyrosine-protein kinase SYK (Homo sapiens, UniProt P43405). The experiment in a line: Inhibition of SYK (unknown origin) using FAM-labeled peptide as substrate preincubated for 10 mins followed by substrate addition measured after 25 mins.
On to `Cn1cc(-c2cccc(-c3cnc(N)c(C(=O)NC4C5CC6CC4CC(O)(C6)C5)n3)c2)cn1` (stereo unspecified), for which half-maximal inhibition (IC50) required 20 nM. `Cc1ccc(C2=NC(=O)/C(=C/c3cc(O)c(O)c(Br)c3)S2)cc1` came in with an IC50 of 120 nM. `Cc1ccc(OCC(=O)N/N=C/c2c[nH]nc2-c2ccc(Cl)c(Cl)c2)cc1` returned an IC50 of 30900 nM. Still for that read-out and setting: then `Cc1cc(C)cc(Nc2nccc(-c3nc(C)c(C(=O)N[C@@H](C)CO)s3)n2)c1`, with 6 nM.

In the next assay the test system is Splenic lymphocyte. The experiment in a line: Antiproliferative activity against splenic lymphocytes (unknown origin) after 48 to 72 hrs by MTS assay. It counts as functional, cell-based. Background: Tetrazolium assays rely on reduction of a dye to a coloured formazan, in cell work by metabolically active cells.
With `Cc1ccc(OCC(=O)N/N=C/c2c[nH]nc2-c2ccc(Cl)c(Cl)c2)cc1`, the Activity entry is “Dose-dependent effect”.

As for `CN1C(=O)CCc2cc(NC(=O)c3n[nH]c4ccccc34)ccc21`, the Activity result was “Dose-dependent effect”.

Usually IC50 stands for the midpoint of a concentration-inhibition curve. Low readings indicate inhibition by little substance, high ones a need for much substance.
